This test concerns the target T1, Kras and SOS1 (biotin-tagged human Kras loaded with GDP, His-tagged human SOS1) (Homo sapiens, UniProt P01116, G12D).
T1 construct: made in house; host or cells: E. coli (stated for Kras only)
The test can be described thus: Protein-protein interaction inhibition between Kras and SOS1 (KrasGl2D-SOS PPI) using AlphaScreen. The conditions noted are these: AlphaScreen; biotin-tagged human Kras loaded with GDP, His-tagged human SOS1; read-out: KRAS G12D-SOS PPI IC50. The format is binding. In outline:
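Energy transfer from nickel-chelate donor beads bound to His-SOS1 to streptavidin acceptor beads bound to biotin-Kras, expressed in E. coli and loaded with GDP after purification, was monitored. Donors were excited at 680 nm; singlet oxygen reaching acceptors gave emission read at 520-620 nm.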
On the technique in general: Bead proximity is the source of the signal in Alpha formats.

In general, IC50 refers to the point on the concentration scale where inhibition reaches its midpoint.

Molecules are shown by their SMILES. Starred links: 1 amine or outer side, 2 acyl side, 3 side chain; linkers in the order of their positions; H or OH if unused. Positions of bridges follow the written chain, without caps; N, C: chain ends. Non-standard residues stand in square brackets, D forms with d. Residues, ends and D or L forms follow the SMILES beside them. *: point of attachment. hPhe(3-Cl-4-CF3) = N[C@@H](CCc1ccc(C(F)(F)F)c(Cl)c1)C(=O)O; hPhe(3-F,4-CF3) = N[C@@H](CCc1ccc(C(F)(F)F)c(F)c1)C(=O)O; hPhe(4-CF3) = N[C@@H](CCc1ccc(C(F)(F)F)cc1)C(=O)O; NMePhe(4-Cl) = CN[C@@H](Cc1ccc(Cl)cc1)C(=O)O; NMePhe(4-Me) = CN[C@@H](Cc1ccc(C)cc1)C(=O)O; NMePhe(3-F) = CN[C@@H](Cc1cccc(F)c1)C(=O)O; NMeMet(O2) = CN[C@@H](CCS(C)(=O)=O)C(=O)O; NMedβ3hAla = C[C@H](CC(=O)[*:2])N(C)[*:1]; Phe(3-I) = N[C@@H](Cc1cccc(I)c1)C(=O)O; Pro(4,4-F2) = O=C(O)[C@@H]1CC(F)(F)CN1; NMeCha = CN[C@@H](CC1CCCCC1)C(=O)O; NMeCba = CN[C@@H](CC1CCC1)C(=O)O; NMeChg = CN[C@H](C(=O)O)C1CCCCC1; NMeF = CN[C@@H](Cc1ccccc1)C(=O)O; N(CH2CH2)2CF2 = FC1(F)CCN(*)CC1; NMeD = CN[C@@H](CC(=O)O)C(=O)O; CH2CONHtBu = CC(C)(C)NC(=O)C*; NMeL = CN[C@@H](CC(C)C)C(=O)O; NMeV = CN[C@H](C(=O)O)C(C)C; d(β3hA) = C[C@@H](N)CC(=O)O; Ac6c = NC1(C(=O)O)CCCCC1; NMeA = CN[C@@H](C)C(=O)O; Nle = CCCC[C@H](N)C(=O)O; Piperidide = C1CCN(*)CC1; Pyrrolidide = C1CCN(*)C1; Ac5c = NC1(C(=O)O)CCCC1; Aze = O=C(O)[C@@H]1CCN1; Abu = CC[C@H](N)C(=O)O; Ac4c = NC1(C(=O)O)CCC1; Cyclobutyl = C1CC(*)C1; βAla = NCCC(=O)O; Sar = CNCC(=O)O

T1 sequence (P01116 1-188 isoform P01116-2 G12D): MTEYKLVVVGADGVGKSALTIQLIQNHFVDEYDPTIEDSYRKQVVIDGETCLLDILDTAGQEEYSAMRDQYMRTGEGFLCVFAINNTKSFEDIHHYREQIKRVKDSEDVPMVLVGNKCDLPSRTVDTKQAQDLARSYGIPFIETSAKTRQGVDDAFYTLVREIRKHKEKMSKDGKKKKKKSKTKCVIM

`CC(C)C[C@H]1C(=O)N[C@@H](COC2CCC2)C(=O)N(C)CC(=O)N(C)CC(=O)N(C)[C@@H](CC2CCCCC2)C(=O)N(C)CC(=O)N[C@@H](CCc2ccc(C(F)(F)F)c(Cl)c2)C(=O)N2CCC[C@H]2C(=O)NC2(CCCC2)C(=O)N(C)[C@@H](C2CCCCC2)C(=O)N(C)[C@H](C(=O)N2CCCCC2)CC(=O)N1C` [Compound 226] ([NMeL]S(Cyclobutyl)[Sar][Sar][NMeCha][Sar][hPhe(3-Cl-4-CF3)]P[Ac5c][NMeChg][NMeD]-Piperidide; lactam N-11): the IC50 worked out at 3.5 nM. With `CC[C@H](C)[C@@H]1NC(=O)[C@H](CC2CCC2)N(C)C(=O)C[C@@H](C)NC(=O)[C@H](C(C)C)N(C)C(=O)C2(CCCC2)NC(=O)[C@@H]2CCCN2C(=O)[C@H](CCc2ccc(C(F)(F)F)c(Cl)c2)NC(=O)CN(C)C(=O)[C@H](CC2CCCCC2)N(C)C(=O)CN(C)C(=O)CN(C)C1=O` [Compound 230] (cyclo([Ac5c][NMeV][d(β3hA)][NMeCba]I[Sar][Sar][NMeCha][Sar][hPhe(3-Cl-4-CF3)]P)), the IC50 worked out at 39 nM. The result for `CC[C@H](C)[C@@H]1NC(=O)[C@H](CC(C)C)N(C)C(=O)C[C@@H](C)NC(=O)[C@H](CC(C)C)N(C)C(=O)C2(CCCCC2)NC(=O)[C@@H]2CCCN2C(=O)[C@H](CCc2ccc(C(F)(F)F)c(F)c2)NC(=O)CN(C)C(=O)[C@H](CC2CCCCC2)N(C)C(=O)CN(C)C(=O)CN(C)C1=O` [Compound 231] (cyclo([Ac6c][NMeL][d(β3hA)][NMeL]I[Sar][Sar][NMeCha][Sar][hPhe(3-F,4-CF3)]P)) reads 120 nM. Regarding `CCCC[C@@H]1NC(=O)[C@H](Cc2cccc(I)c2)NC(=O)CN(C)C(=O)[C@H](Cc2ccc(C)cc2)N(C)C(=O)CN(C)C(=O)CN(C)C(=O)[C@H]([C@@H](C)CC)NC(=O)[C@H](CC(C)C)N(C)C(=O)C[C@@H](C(=O)N2CCCCC2)N(C)C(=O)[C@H](CC(C)C)NC(=O)[C@H](C)N(C)C1=O` [Compound 232] ([NMeL]I[Sar][Sar][NMePhe(4-Me)][Sar][Phe(3-I)][Nle][NMeA]L[NMeD]-Piperidide; lactam N-11), the IC50 was determined as 20 nM. The result for `CC[C@H](C)[C@@H]1NC(=O)[C@H](C)N(C)C(=O)C[C@@H](C(=O)N2CCCC2)NC(=O)[C@H](CC(C)C)N(C)C(=O)[C@H](Cc2ccccc2)N(C)C(=O)[C@H](COCC(=O)NC(C)(C)C)NC(=O)[C@H](CCc2ccc(C(F)(F)F)cc2)NC(=O)CN(C)C(=O)[C@H](Cc2ccc(Cl)cc2)N(C)C(=O)CN(C)C(=O)CN(C)C1=O` [Compound 233] ([NMeA]I[Sar][Sar][NMePhe(4-Cl)][Sar][hPhe(4-CF3)]S(CH2CONHtBu)[NMeF][NMeL]D-Pyrrolidide; lactam N-11) reads 66 nM; that for `CC[C@H](C)[C@@H]1NC(=O)[C@H](CC(C)C)N(C)C(=O)C[C@@H](C(=O)N2CCCCC2)N(C)C(=O)[C@H](C(C)C)N(C)C(=O)C2(CCCC2)NC(=O)[C@@H]2CCCN2C(=O)[C@H](CCc2ccc(C(F)(F)F)c(Cl)c2)NC(=O)CN(C)C(=O)[C@H](CCS(C)(=O)=O)N(C)C(=O)[C@@H]2CCN2C(=O)[C@H](C)N(C)C1=O` [Compound 235] ([NMeL]I[NMeA][Aze][NMeMet(O2)][Sar][hPhe(3-Cl-4-CF3)]P[Ac5c][NMeV][NMeD]-Piperidide; lactam N-11), 11 nM; that for `CC[C@H](C)[C@@H]1NC(=O)CCNC(=O)[C@H](Cc2cccc(F)c2)N(C)C(=O)[C@H](C2CCCCC2)N(C)C(=O)C2(CCCC2)NC(=O)[C@@H]2CCCN2C(=O)[C@H](CCc2ccc(C(F)(F)F)c(Cl)c2)NC(=O)CN(C)C(=O)[C@H](CC2CCCCC2)N(C)C(=O)CN(C)C(=O)CN(C)C1=O` [Compound 237] (cyclo([Ac5c][NMeChg][NMePhe(3-F)][βAla]I[Sar][Sar][NMeCha][Sar][hPhe(3-Cl-4-CF3)]P)), 42 nM. The result for `CC[C@@H]1NC(=O)[C@H](CC(=O)N2CCC(F)(F)CC2)N(C)C(=O)[C@H](CCc2ccc(C(F)(F)F)c(Cl)c2)NC(=O)CN(C)C(=O)[C@H](CC2CCCCC2)N(C)C(=O)CN(C)C(=O)CN(C)C(=O)[C@H]([C@@H](C)CC)NC(=O)[C@H](CC(C)C)N(C)C(=O)C[C@@H](C(=O)N2CCCCC2)N(C)C(=O)[C@H](C(C)C)N(C)C1=O` [Compound 240] ([NMeL]I[Sar][Sar][NMeCha][Sar][hPhe(3-Cl-4-CF3)][NMeD](N(CH2CH2)2CF2)[Abu][NMeV][NMeD]-Piperidide; lactam N-11) reads 140 nM; that for `CC[C@H](C)[C@@H]1NC(=O)[C@H](CC(C)C)N(C)C(=O)C[C@@H](C)N(C)C(=O)[C@H](C2CCCCC2)N(C)C(=O)C2(CCC2)NC(=O)[C@@H]2CC(F)(F)CN2C(=O)[C@H](CCc2ccc(C(F)(F)F)c(Cl)c2)NC(=O)CN(C)C(=O)[C@H](CC2CCCCC2)N(C)C(=O)CN(C)C(=O)CN(C)C1=O` [Compound 241] (cyclo([Ac4c][NMeChg][NMedβ3hAla][NMeL]I[Sar][Sar][NMeCha][Sar][hPhe(3-Cl-4-CF3)][Pro(4,4-F2)])), 18 nM.

These data come from patent US12371454B2, “Cyclic peptide compound having Kras inhibitory action” (priority 2019, dated 2025).
